Where two headings read alike, the source gives them in different places.
Key:
[1] = tested on: rat brain hippocampal cells; assay: glutamate induced neurotoxicity in hippocampal neuron cultures; type: cell-based; conditions: 3 days of culture
Description: The effect of the neuroprotective peptides was tested on rat brain hippocampal cells. Rat brain hippocampi were isolated by dissection of 18 day old rat fetuses. […] The cultures were then incubated for 30 min at 37° C. after which glutamate was added at the concentrations indicated. Cells were counted after 3 days of culture; healthy cells and total cells were counted.

[2] = fura-2 calcium chelation assay in cells loaded with fura-2 and calcium; type: cell-based
Description: Any of the foregoing peptides can be tested for calcium binding by well known assays of calcium chelation (see, e.g. Cornell-Bell et al., Science 247:470-473, 1990; Cornell-Bell et al., Cell Calcium 12:185-204, 1991). For example, one preferred method employs the calcium sensitive dye fura-2 to measure the chelation of calcium by the isolated peptides. In such an assay, cells are loaded with fura-2 and calcium. […] An isolated peptide then is added to the cells and the diminution of fura-2 fluorescence is determined. Dose response experiments can be performed to determine the concentration at which the isolated peptide completely eliminates fura-2 fluorescence. For example, the isolated peptide of SEQ ID NO:4 completely eliminates fura-2 fluorescence at a concentration of 1 pg/ml in the cell culture medium.
Peptides, including variant peptides, can be tested for retention for any of the foregoing properties. For example, the peptides can be tested for in vitro properties initially to determine which of the variant peptides retain the ability to bind calcium ions and/or stimulate the expression of transcription factors. In vitro assays of calcium binding include contacting the peptide with an environment which contains calcium, such as a cell preloaded with calcium and a fluorescent calcium-sensitive dye, and determining the calcium binding of the peptide Peptides which retain one or more of these properties can then be used in in vivo assays of neuroprotection such as the Mongolian gerbil assay described below. Neuroprotective peptides or their variants which are conjugated to targeting compounds, labels, blood-brain barrier carriers and the like can be tested for retention of neuroprotective activity as well as for the activity of the conjugated compound (e.g., appropriate targeting, detectable labeling, ability to cross the blood-brain barrier, etc.).

[3] = tested on: CA1 and CA3 hippocampal neurons; assay: histological cell density/survival of hippocampal neurons in gerbil brains after forebrain ischemia; type: in vivo, male Mongolian gerbil
Description: At the time of the sacrifice, each animal was deeply anesthetized and perfused transcardially with heparinized saline followed by paraformaldehyde (4%) in phosphate buffered saline. After fixation the brains were placed in 30% sucrose for 3 days, embedded in glutaraldehyde-gelatin, cut frozen into 30μ serial sections for morphometric analysis, and stained with cresyl violet. The cell densities per 1000 microns2 were determined by computer assisted counting of grey level images at 300× viewed through an Axioplan microscope. It was determined that a maximum of 62% of the hippocampal pyramidal cells survived the ischemia in the presence of NMI 9236 as compared to 4% survival for the control saline non-drug treated animals. All analyses were carried out blind.
At 8 days post surgery the gerbils were sacrificed, perfusion fixed with formalin, and each perfused brain was embedded in glutaraldehyde-gelatin. About 300 serial sections (40 microns thick) were cut from each frozen brain, and stained with cresyl violet. Cell morphometric analysis was carried out on one out of every 10 sections by computer-assisted cell density counting of grey level images viewed at 300× through an Axioplan microscope. Focused camera input (Sony CCD) from the microscope to the IBS video screen of the Zeiss IBAS/KONTRON Image analysis system was normalized and segmented before assessing cell number. The average cell density present per a 1000 micron^2 region of the CA1 and CA3 pyramidal cell layers for the left and right side of each were determined. The analysis was carried out blind.

[4] = tested on: gerbil model for ischemic stroke (5 minute bilateral carotid occlusion); assay: general locomotor activity (GLA) of gerbils after forebrain ischemia; type: in vivo, male Mongolian gerbil
Excerpt: The gerbil (male Mongolian) has been widely used as an experimental model for studies of ischemic stroke because the brain blood supply is controlled by only two common carotid arteries. This unusual feature occurs in gerbils because they have an incomplete circle of Willis (Chandler et al., J. Pharmacol. Methods 14:137-146, 1985; Finkelstein et al., Restor. Neurol. Neurosci. 1:387-394, 1990; Levine and Sohn, Arch. Pathol. 87:315-317, 1969; Kahn, Neurology 22:510-515, 1972). A five minute bilateral carotid occlusion results in neuronal cell death that is predominantly localized in the CA1 subfield of the hippocampus. The CA1 neurons degenerate and virtually disappear by 7-8 days after ischemia (Akira, Res. in Immunol. 143:734-736 1992; Crain et al., Neurosci. 27:387-402, 1988). In addition, the gerbil model has the advantage that within one day after ischemia the animals increase by 100% to 200% their general locomotor activity. This readily measurable change can persist for at least eight days in most of the experimental animals (Akira, 1992; Kuroiwa et al., Neurosci. Lett. 122:141-144, 1991; Ohno et al., Eur. J Pharmacol. 193:357-361, 1991; Phillis, Brain Res. Bull. 23:467-470, 1989).
Male Mongolian gerbils were anesthetized with a mixture of isoflurane and oxygen using an inhalation apparatus (Stoelting Instrument Co.). An incision was made in the ventral neck and the common carotid arteries were isolated and occluded completely for a period of 5 minutes using microaneurysm clips. Next, the clips were removed and the incision sutured. The anesthesia was continued until the end of the i.v. injection and infusion period. Mean arterial blood pressure was monitored by a polyethylene catheter implanted in the left or right femoral […] during surgery. […]
GLA measurements were carried out in half hour sessions using the Stoelting Electronic Activity monitor (Shashoua et al., J. Med. Chem. 27:654-659, 1984; Jacob et al., J. Med. Chem. 30:1573-1576, 1987). Each gerbil's activity level was first assessed on days 3 and 1 prior to the experimental ischemia procedure to obtain a base line GLA data, then on days 1, 2, 5, and 7 after the carotid artery occlusion to determine efficacy of drug treatment. […]
Male Mongolian gerbils were anesthetized with a mixture of halothane and oxygen in Phase 1 of surgery and a cannula (an Alzet No. 2002 pump) was implanted subcutaneously in the midscapular region beneath the skin of the animal. […] All surgical procedures were carried out with a strict control of the temperature of each animal; rectal temperatures were monitored and heat was supplied via a temperature regulated heating pad. […]

[5] = tested on: AP-1 transcription factor; assay: EMSA of AP-1 in nuclear extracts of neuroblastoma cultures; type: cell-based, mouse
Description: (§1) It was determined that NMI 9236 can turn on specific genes related to neuronal growth in neuroblastoma tissue culture experiments.
(§2) The activation of specific transcription factors was assayed using an electrophoretic mobility shift assay (EMSA, for review see: Kerr, Meth. Enzymol 254:619-632, 1995). Nuclear extracts were prepared from stimulated neuroblastoma cell cultures (10^7 cells/sample) using classical nuclear extraction protocols (Dignam et al., Nucl. Acids Res. 11: 1475-1489, 1983; Prywes and Roeder, Cell 47: 777-784, 1986). A 0.5 pmol aliquot of a synthetic ^32P labeled oligomer duplex (with a sequence known to bind a specific transcription factor, see Table 2) was mixed with 3 μg of nuclear extract protein, and the mixture incubated at room temperature for 20 minutes. Subsequent electrophoresis under non-denaturing conditions through 4% polyacrylamide gels were used to separate and resolve the high MW protein/DNA complexes (transcription factor/DNA oligomer duplex) form low MW uncomplexed DNA oligomers. Autoradiography was used to visualize and quantify the complexes formed (see FIG. 6).
Using the electrophoretic mobility shift assay (EMSA) we tested for changes in concentration of transcription factors AP-1 and NF-IL6 in neuroblastoma nuclei as a function of stimulation by peptide NMI-9236. These two factors are well known to function in cell proliferation and differentiation, and to be activated by protein kinase-C. […] Identification of the two observed bands as Jun/Fos heterodimers and Jun/Jun homodimers was based on their electrophoretic migration, as well as antibody studies (data not shown).

[6] = tested on: NF-IL6 transcription factor; assay: EMSA of NF-IL6 in nuclear extracts of neuroblastoma cultures; type: cell-based, mouse
Description: as §1, §2
Identification of the observed band as NF-IL6 ([…]) was based on its electrophoretic migration, as well as antibody studies (data not shown).

neurons = conditions: compared with 68 kilodalton parent protein; Shashoua et al., 1992; cited from earlier work
[7] = 1 mg/kg i.v. @ 1 hr post ischemia, day 8, n=3
[8] = NB2a mouse neuroblastoma cultures, 5-50 μg/ml
[9] = neuroblastoma cells treated for 20 hours
[10] = 2 mM glutamate + 12 μg/ml peptide
[11] = 2 mM glutamate + 18 μg/ml peptide

N[C@@H](CCC(=O)O)C(=O)O [glutamate, reference compound]
% healthy ([1]; 1 mM glutamate alone): 51.5%
Healthy cells ([1]; 1 mM glutamate alone): 35
Total cells ([1]; 1 mM glutamate alone): 68
% healthy ([1]; 2 mM glutamate alone): 40.8%
Healthy cells ([1]; 2 mM glutamate alone): 62
Total cells ([1]; 2 mM glutamate alone): 156

D-F-A-I-D-A-P-E (DFAIDAPE) [SEQ ID NO:10]
calcium chelation (in words) [2]: chelate calcium as tightly as the peptide of SEQ ID NO:3
calcium chelation effectiveness relative to peptide of SEQ ID NO:4 ([2]; fura-2 fluorescence): about half as effective as the peptide of SEQ ID NO:4
calcium chelation (in words) ([2]; listed as SEQ ID NO: 10): chelates calcium

K-K-D-G-D-G-D-F-A-I-D-A-P-E (KKDGDGDFAIDAPE) [NMI 9236, 14 amino acid peptide]
Cell Density CA1-Hippocampal field [3, 7]: 13.3 ± 0.82 number of cells/1000 microns^2
Cell Density CA3-Hippocampal field [3, 7]: 8.82 ± 0.42 number of cells/1000 microns^2
neuronal loss in CA1/CA3 versus sham operated controls (in words) ([3]; 1 mg/kg i.v. bolus at 1 hr post ischemia): essentially all the cells remained intact
survival of L-CA1 neurons ([3]; icv into left lateral ventricle, 8 days post-ischemia, left side): 52±12%
survival of R-CA1 neurons ([3]; icv into left lateral ventricle, 8 days post-ischemia, right (unprotected) side): 4±2%
L-CA1 cell density as % of level of sham operated control brain ([3]; icv, 8 days post surgery): about 50%
L-CA1 cell density count ([3]; icv, 8 days post surgery, saline controls 0.6): 6.2 per 1000 micron^2
R-CA1 cell density ([3]; icv, 8 days post surgery, stated comparable to saline controls): ~0.6 per 1000 micron^2
maximum survival of hippocampal pyramidal cells after ischemia ([3]; in the presence of NMI 9236, 4% for control saline animals): ≤ 62%
average GLA, % of the day 1 data ([4]; 1 mg/kg i.v. (femoral vein) at 1 hour after occlusion, saline control 225%): 85%
effect on GLA (in words) ([4]; i.v. injection at 10 minutes after the ischemic event, n=3): blocked the development of enhanced GLA
GLA, % of own GLA one day prior to surgery ([4]; icv delivery by Alzet pump, 1 milligram per ml, 7 days pre- and 7 days post-ischemia, n=4): 80%
GLA value ([4]; subcutaneous (s.c.) injection at 1 hour after the surgery): 200%
AP-1 activation, densitometric scans of the EMSA [5]: 3-5 fold
activation of AP-1 relative to control ([5]; 30 min): less pronounced
level of AP-1 in the nuclei of the cells [5, 8]: increase
activation of AP-1 relative to control [5, 9]: strong activation
activation of AP-1 relative to control ([5]; serum-free medium, 20 hours): very strong activation
NF-IL6 activation, densitometric scan of the EMSA ([6]; 1 μg/ml, in comparison to control): 3-5 fold
activation of NF-IL6 relative to control ([6]; 30 min): less pronounced
level of NF-IL6 in the nuclei of the cells [6, 8]: increase
activation of NF-IL6 relative to control [6, 9]: strong activation
activation of NF-IL6 relative to control ([6]; serum-free medium, 20 hours): very strong activation
% healthy [1, 10]: 92%
Healthy cells [1, 10]: 138
Total cells [1, 10]: 150
% healthy [1, 11]: 81.6%
Healthy cells [1, 11]: 80
Total cells [1, 11]: 98
concentration at which the peptide completely eliminates fura-2 fluorescence ([2]; in the cell culture medium): 1 pg/mL
promotion of growth and sprouting of neurons (neurons): at least the same extent as its 68 kilodalton parent protein

From patent US6627601B2, “Neuroprotective peptides and uses thereof” (Protarga, Inc., priority 1998, dated 2003)
